“Also recorded” adds a separate entry of the source. Non-standard residues stand in square brackets, D forms with d. No end group written: not given here. *: point of attachment. X1 = CC[N+]1=C(/C=C/C=C/C=C2N(CCCCCC(=O)NCCN3C(=O)CC(*)C3=O)c3ccc(S(=O)(=O)O)cc3C2(C)C)C(C)(C)c2cc(S(=O)(=O)[O-])ccc21
Columns and labels:
trypsin = trypsin (Sus scrofa, UniProt P00761); settings: trypsin digestion, 37°C, pH8, followed up to 24 h
Experimental: Trypsin proteolysis. MUB40 (SEQ ID NO: 3)-Cy5 and RI-MUB40 (SEQ ID NO: 2)-Cy5 were dissolved in 50 mM ammonium bicarbonate, pH 8. Prior to digestion and owing to the propensity of maleimide derivatives to undergo ring-opening in a basic environment (Fontaine et al., 2015), we incubated both peptides at 37° C. overnight. Ring-opening completion was checked before trypsin addition. […] Lyophilized trypsin (Thermo scientific) was reconstituted using 50 mM acetic acid, diluted with 50 mM ammonium bicarbonate and added to the peptide solution so as to obtain a final peptide concentration of 0.25 mg/mL and a protease to protein ratio of 1:20 (w/w). Samples were directly incubated on the injection sampler thermostated at 37° c. HPLC and LC-MS analyses were performed as previously described above, applying a 15% to 40% linear gradient of acetonitrile in 10 mM ammonium acetate over 20 minutes.
Hydrolysis experiments were done in solution at 37° c., pH8 and monitored by HPLC by measuring the peak area of the remaining intact peptides.

human colonic mucus = assay: Fluorescent labelling of human colonic mucus layer; format: binding; settings: 1 μg/mL
Experimental: Colon explant surgical collection. In summary, human colon segments (ascending, descending, and sigmoid colon) were obtained from fully informed patients undergoing surgery for colon carcinoma and were analyzed anonymously. Patient written consent was obtained, according to the French bioethics law. None of the patients had undergone radiotherapy or chemotherapy. According to the pathologist's examination rules for the longitudinally bisected colon, a healthy segment of tissue, which was distant from the tumor region and devoid of metastatic cells, was removed. Tissues were processed according to the French Government guidelines for research on human tissues and the French Bioethics Act with the authorization no RBM 2009-50.
Fixation and staining procedures. For microscopy studies, purified or cultured cells and polymerized lactoferrin were resuspended onto 24-well plates containing 12 mm coverslips in RMPI 1640+10 mM Hepes (when cultured in the autologous plasma) and centrifuged at 300×g for 10 min. Culture media were removed and cells were fixed in 4% Paraformaldehyde (PFA) for two hours. Fixed cells were washed three times in PBS+0.1% saponin (Sigma-Aldrich), prior immunolabeling with primary antibodies in the same buffer for 1 hour (Triton 0.1% can alternatively be used for cell permeabilization). After three additional washes in PBS+0.1% saponin, secondary antibodies and fluorescent markers were incubated for one hour. […]
Antibodies, fluorescent markers. For immunofluorescence assay, lactoferrin was detected with a mouse anti-lactoferrin primary monoclonal antibody (Hycult biotech, clone 265-1K1, 1:50 dilution) and an anti-mouse-FITC conjugated secondary antibody (1:1000). Nuclei were detected with DAPI (Life Technologies), Lyophilized MUB40 peptides (MUB40#1 (SEQ ID NO: 3)-Cy5, MUB40#2 (SEQ ID NO: 4)-Cy5, MUB40#3 (SEQ ID NO: 5)-Cy5, MUB40#4 (SEQ ID NO: 6)-Cy5, MUB40#1 (SEQ ID NO: 3)-Dylight, RI-MUB40 (SEQ ID NO: 2)-Cy5, and RI-MUB40 (SEQ ID NO: 2)-Biotin) were solubilized in a phosphate buffer pH8 at a 1 mg/mL concentration and used at a 1:1000 dilution. […]

[1] = tested on: human neutrophil granules; assay: Fluorescent labelling of fixed purified human neutrophils; format: cell-based; settings: 1 μg/mL
Experimental: Fixation and staining procedures. For microscopy studies, purified or cultured cells and polymerized lactoferrin were resuspended onto 24-well plates containing 12 mm coverslips in RMPI 1640+10 mM Hepes (when cultured in the autologous plasma) and centrifuged at 300×g for 10 min. Culture media were removed and cells were fixed in 4% Paraformaldehyde (PFA) for two hours. Fixed cells were washed three times in PBS+0.1% saponin (Sigma-Aldrich), prior immunolabeling with primary antibodies in the same buffer for 1 hour (Triton 0.1% can alternatively be used for cell permeabilization). After three additional washes in PBS+0.1% saponin, secondary antibodies and fluorescent markers were incubated for one hour. Coverslips were washed three time in PBS+0.1% saponin, three times in PBS, and three times in deionized H2O and mounted with prolong gold^tm mounting media.
Antibodies, fluorescent markers. For immunofluorescence assay, lactoferrin was detected with a mouse anti-lactoferrin primary monoclonal antibody (Hycult biotech, clone 265-1K1, 1:50 dilution) and an anti-mouse-FITC conjugated secondary antibody (1:1000). Nuclei were detected with DAPI (Life Technologies), Lyophilized MUB40 peptides (MUB40#1 (SEQ ID NO: 3)-Cy5, MUB40#2 (SEQ ID NO: 4)-Cy5, MUB40#3 (SEQ ID NO: 5)-Cy5, MUB40#4 (SEQ ID NO: 6)-Cy5, MUB40#1 (SEQ ID NO: 3)-Dylight, RI-MUB40 (SEQ ID NO: 2)-Cy5, and RI-MUB40 (SEQ ID NO: 2)-Biotin) were solubilized in a phosphate buffer pH8 at a 1 mg/mL concentration and used at a 1:1000 dilution. For PBMC staining CD19-APC (B lymphocytes), CD3-APC (T lymphocytes), and CD14-PercP (monocytes, macrophages) (BD Bioscience) were used at a 1:1000 dilution together with Dapi (1:1000) and MUB40-Cy5 (1 mg/mL). Actin was stained with Phalloidin-Rhodamine red X (RRX) (Jackson Immunoresearch Antibodies) used at a 1:1000 final dilution.
Polymorphonuclear neutrophils purification. Human polymorphonuclear neutrophils were purified as described previously (Monceaux et al. 2016). Briefly, plasma was removed by centrifugation (450×g, 15 min); blood cells were resuspended in 0.9% NaCl solution supplemented with 0.72% Dextran. After red blood cells sedimentation, white blood cells were pelleted and further separated on a two layer Percoll (GE Healthcare) (51%−42%) by centrifugation (at 240×g, 20 min). PBMC (top layer) were isolated from polymorphonuclear neutrophils (bottom layer). Red blood cells were removed from the latter fraction using CD235a (glycophorin) microbeads (negative selection) (Miltenyi Biotec). PBMCs and polymorphonuclear neutrophils were resuspended in the autologous plasma. Guinea pig and mouse polymorphonuclear neutrophils were purified with the same procedure.
Confocal microscopy. […]

[2] = tested on: mucus produced by human cell lines (L174T); assay: Binding to mucus produced by human cell lines; format: cell-based
living human neutrophils = assay: Live microscopy of neutrophils infected with Shigella flexneri; format: cell-based
Experimental: Neutrophil infection. Human purified neutrophils were cultured in glass-bottom dishes (Mattek) for live fluorescent microscopy in a RMPI 1640 (Life Technologies) culture medium supplemented with 10% of heat inactivated Human Serum (Sigma-Aldrich). Neutrophils (5.10^5 cell/mL in 2 mL) were infected with exponentially-grown Shigella flexneri 5a pGFP at a Multiplicity Of Infection (MOI) 20 in RMPI 1640 (Life Technologies) culture medium supplemented with 10 mM Hepes (Life Technologies) at 37° C. Infected neutrophils were centrifuged at 2000 rpm for 10 min prior imaging.
Live epifluorescence microscopy. Viable neutrophils infected with S. flexneri pGFP were imaged on a Definite focus live microscope (Zeiss) equipped with a temperature control chamber (37° C.) and a 63× oil immersion objective. Images were acquired every 60 s. Z-stack images were taken with […] step-size increments. Obtained Z-stack images were processed with Fiji software to generate a Movie and the corresponding extracted images are shown in FIG. 16a.

[3] = tested on: inflammatory sites, localized in joints; assay: Mouse arthritis model (K/B×N serum transfer), in vivo epifluorescence imaging
Experimental: Mouse arthritis model. 6-7 weeks old female C57BL/6J mice were purchased from Charles River France, housed under specific pathogen-free (SPF) conditions and handled in accordance with French and European directives. Mouse protocols were approved by the Animal Ethics committee CETEA number 89 (Institut Pasteur, Paris, France) and registered under #2013-0103, and by the French Ministry of Research under agreement #00513.02. Arthritis was induced by i.v. injection of 120 μL K/B×N serum and arthritis scored as described previously (Bruhns et al. 2003). Mice injected with physiological saline were used as controls. On day 6 after serum transfer, mice were anesthetized, shaved, depilated and injected i.p. with luminol (10 mg/mouse) and i.v. with 5 μg/mouse MUB-40 Cy5. Epifluorescence, bioluminescence and CT images were acquired 10-90 min after injection using an IVIS SpectrumCT (Perkin Elmer).

[4] = tested on: hind and front inflamed ankles; assay: K/B×N mice, ankle fluorescence imaging after intravenous injection; format: in vivo, mouse; settings: 2 days post i.v. injection of 0.9 nmoles; p<0.01 vs MUB40-Cy5, p<0.001 vs Cy5 only
Description: (A) Ankles of K×B/N mice were imaged 2 Days after intravenous injection of 0.9 nmoles of RI-MUB40-Cy5 (SEQ ID NO: 2), MUB40-Cy5 (SEQ ID NO: 3) or Cy5 only. Fluorescence was quantified at the level of front or hind ankles (in ROI, as indicated).
(B) Quantification of the fluorescent signal associated with RI-MUB40 (SEQ ID NO: 2)-Cy5, MUB40 (SEQ ID NO: 3)-Cy5 or Cy5 accumulation at hind and front ankles (top) or hind ankles only (bottom). Results are average from at least three animals. ** indicates p<0.01 and *** indicates p<0.001 (Student's T-test).

[5] = tested on: neutrophils recruited to guinea pig colonic mucosa infected with Shigella flexneri; assay: Guinea pig model of shigellosis, staining of fixed colon sections; settings: guinea pig colon, Shigella flexneri, 1 μg/ml
Experimental: Guinea pig. The experimental protocol was approved by the french Ethic Committee Paris (n° 20140069, 2014). Young guinea pigs (Hartley, <150 g, Charles River) were anaesthetized and infected intrarectally with 10^9 CFU exponentially grown Shigella flexneri 5a (M90T) pGFP as previously described (Shim et al. 2007) (Monceaux et al. 2016). Infection occurred during 8 hours before animals were sacrificed and infected colons collected and fixed in 4% Paraformaldehyde (PFA) for two hours. For immunohistochemical staining, infected guinea pig colon samples were washed in PBS and incubated at 4° C. in PBS containing 16% sucrose for 4 hours, followed by incubation in PBS with 30% sucrose overnight. Samples were frozen in OCT (VWR 361603E) on dry ice. Frozen blocks were stored at −80 until sectioning. 10 to 30 μm sections were obtained using a cryostat CM-3050S (Leica). Tissue slices were labeled in PBS+0.1% saponin (Sigma-Aldrich) with MUB40-Cy5 or MUB40-Dylight (1 μg/ml) to localize recruited neutrophils. Slides were washed three time in PBS+0.1% saponin, three times in PBS, and three times in deionized H2O and mounted with prolong gold^tm mounting media.

[6] = tested on: neutrophils recruited to rabbit ileum infected with Shigella flexneri; assay: Rabbit ligated loop model of shigellosis, staining of fixed ileum sections; settings: 1 μg/mL
Experimental: Rabbit. The experimental protocol was approved by the french Ethic Committee Paris 1 (number 20070004, December 9th 2007). New Zealand White rabbits weighting 2.5-3 kg (Charles River) were used for experimental infections. For each animal, up to 12 intestinal ligated loops, each 5 cm in length, were prepared as described previously (Jones et al. 2007; Martinez et al. 1988; West et al. 2005) and infected with 10^5 CFU S. flexneri pGFP per loop. After 16 h, animals were sacrificed and collected tissue were fixed in 4% Paraformaldehyde (PFA) for two hours. For immunohistochemical staining, infected rabbit ileum samples were washed in PBS, incubated at 4° C. PBS containing 12% sucrose for 90 min, then in PBS with 18% sucrose overnight, and frozen in OCT (Sakura) on dry ice. 7 μm sections were obtained using a cryostat CM-3050 (Leica). Fluorescent staining was performed in PBS+0.1% saponin using Phalloidin-RRX (1:1000 dilution) to stain Actin, MUB40-Cy5 (1 μg/mL) and a mouse anti-lactoferrin primary monoclonal antibody (Hycult biotech, clone 265-1K1, 1:50 dilution) and an anti-mouse-FITC conjugated secondary antibody (1:1000) to stain infiltrated neutrophils. Slides were washed three time in PBS+0.1% saponin, three times in PBS, and three times in deionized H2O and mounted with prolong gold^tm mounting media.

trypsin, sequence (P00761 9-231): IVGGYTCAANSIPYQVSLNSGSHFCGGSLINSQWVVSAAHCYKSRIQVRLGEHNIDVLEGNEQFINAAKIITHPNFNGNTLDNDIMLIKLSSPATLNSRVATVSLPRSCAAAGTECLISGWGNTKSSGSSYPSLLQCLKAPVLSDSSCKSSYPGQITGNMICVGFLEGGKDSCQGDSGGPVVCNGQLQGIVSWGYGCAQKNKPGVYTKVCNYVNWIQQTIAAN

Ac-[dC](X1)[dF][dI][dV][dT][dY][dF][dQ][dD][dN][dT][dD][dD][dN][dD][dF][dK][dE]G[dA][dP][dF][dN][dD][dK][dF][dL][dE][dY]G[dD]G[dE][dF][dK][dK][dI]G[dE][dA][dT]-NH2 [Cy5-RI-MUB40]
degradation by trypsin (in words) (trypsin): no degradation
labelling of / binding to human colonic mucus (human colonic mucus): validated
labelling of human neutrophil granules [1]: validated
binding to mucus produced by human cell lines (L174T) [2]: validated
detection of lactoferrin degranulation on living neutrophils (living human neutrophils; Shigella flexneri MOI 20, 1 μg/mL, 37°C): transient, dot-shaped fluorescent signals were detected on the cells' surface
crossing of plasma membrane of living cells (living human neutrophils; live cells, listed as RI-MUB40-Cy5): did not cross the plasma membrane of living cells; also recorded: does not cross plasma membrane of live cells
relation of epifluorescent signal to luminol bioluminescent signal ([3]; hind ankle joints, p≤0.0001): correlated
accumulation of fluorescent signal at inflammatory sites ([3]; i.v. injection, arthritic mice but not naïve controls, day 6): a fluorescent signal accumulated at inflammatory sites
epifluorescent signal, arthritic mice vs controls ([3]; p≤0.0001, T-test): significantly higher in arthritic mice compared to controls
fluorescent signal accumulation at hind and front inflamed ankles [4]: significantly higher compared to MUB40-Cy5

MUB40-Dylight405: MUB40#1 (SEQ ID NO: 3) labeled with Dylight 405 (CTAEGIKKFEGDGYELFKDNFPAGEKFDNDDTNDQFYTVIF; also: Dylight 405 label (site not given here))
labelling of human neutrophil granules [1]: specifically labeled
labelling of recruited neutrophils [5]: specifically labeled
labelling of recruited neutrophils [6]: specifically labeled
